Measurements published in PMC5618791, “Double quick, double click reversible peptide “stapling”” (Chemical Science, 2017).
Positions of bridges follow the written chain, without caps; N, C: chain ends. Residues, ends and D or L forms follow the SMILES beside them.

What was measured:
[1] = Circular dichroism, % helicity; type: physicochemical; conditions: CD, peptide 10-20 μM, calculated from MRE at 222 nm
Description: Samples were prepared in two different solvent systems (30% TFE:H2O, 30% CH3CN:water) to concentrations between 10 - 20 μM (Figure S 23). Considering the high number of hydrophobic residues in BID and S peptides, organic co-solvents were used to ensure good solubility and avoid aggregation at concentrations high enough for CD analyses. DMSO stocks of peptides were not used for CD due to its high absorbance below 230 nm.
The raw circular dichroism data obtained for the peptides was processed by the subtraction of the solvent signal and converted into a mean residue ellipticity:
Where = molar ellipticity[θ]MRE per residue, θ = circular dichroism at a given wavelength, c = molar concentration, l = path length in cm, R = number of residues in the peptide sequence.
Calculation of % helicity was performed by the following equation:[4]
Where: θH = Theoretical MRE for 100% helicity at 222 nm, θ0 = Theoretical MRE for 100% helicity at 222 nm at 0 °C = –44000, (∂θ/∂T) = temperature dependence of infinite helix = +250, T = temperature in °C, x = 3, Nr = number of residues in the peptide.
In both solvent systems, it is noteworthy that STA-peptides are more helical than RED-peptides or WT-peptides; with the exception of constrained S-Cys-peptides. The use of TFE as co-solvent in water enhances the α-helicity of both series of peptides compared to the use of acetonitrile in water. […]
thus bioactive) conformation. The S peptides show a low helix propensity which is consistent […]
Figure S 23: CD spectra A. and B. in 30% TFE:H 2O; C. and D. in 30% CH3CN:H 2O.
Table 1: Percentage of helicity in the three solvent systems […]
(also on this page, place not known: Molar residue ellipticity (deg.cm 2 .dmol -1 ) Molar residue ellipticity (deg.cm 2 .dmol -1 ) Molar residue ellipticity (deg.cm 2 .dmol -1 ) Molar residue ellipticity (deg.cm 2 .dmol -1 ) TFE:H2O; CH3CN:H2O.)

RNase S protein = target: T1, RNase S protein (Bos taurus, UniProt P61823); assay: RNA degradation assay, restoration of S protein activity; type: biochemical; conditions: EtBr-labelled RNA, S peptides 0.1-2 μM, 50 mM Tris, 100 mM NaCl, pH 7.50, 60 min, room temperature, fluorescence, triplicate
T1 construct: S protein 21-124; made in house; host or cells: proteolytic fragment of RNase A (subtilisin digestion)
T1 sequence (P61823 47-150): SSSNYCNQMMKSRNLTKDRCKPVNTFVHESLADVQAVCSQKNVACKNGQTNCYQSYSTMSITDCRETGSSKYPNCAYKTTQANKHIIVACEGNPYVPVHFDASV
Description: Fig. 5 Biophysical and bioactivity analyses of WT-S and S derived peptides 3–4a,c. (a) Circular dichroism spectra recorded in water (30% TFE); (b) RNA degradation assay showing the restoration of S protein activity. S protein was used as a negative control, and RNase A as a positive control. (50 mM Tris, 100 mM NaCl, pH 7.50).
RNase A (10 mg) in Hepes (600 µL, 100 mM; pH = 8.0) was digested by subtilisin (5 mg/mL, 10 µL) for 4 hrs at 0 °C. After which, the buffer was acidified with a solution of HCl (1 M) to reach pH = 3. The acidic solution was stirred for 1 h at 2 °C. The reaction was monitored by HPLC using the Jupiter µ Proteo 90 A analytical column using a gradient (0-60% over 30 min). […]
RNA degradation assays were performed in 96-well black plates (Greiner Bio-one). Each experiment was run in triplicate and the fluorescence was measured using a Perkin Elmer EnVisionTM 2103 MultiLabel plate reader, with an excitation and emission at 510 nm and at […]
The buffer used in this enzymatic assay was Tris buffer (50 mM of Tris, 100 mM of NaCl, pH = 7.5). The adequate quantity of buffer was first added to each well to reach a total volume of 200 µL (150 µL for controls, 149 µL for 0.1 µM of S peptides, 148 µL for 0.2 µM of S peptides, 145 µL for 0.5 µM of S peptides, 140 µL for 1 µM of S peptides, 130 µL for 2 µM of S peptides). […]

In the case of CSCC[C@H](NC(=O)[C@H](Cc1c[nH]cn1)NC(=O)[C@H](CCC(N)=O)NC(=O)[C@@H]1CSSC[C@H](NC(=O)[C@H](C)NC(=O)[C@H](C)NC(=O)[C@@H](NC(=O)[C@H](CCC(=O)O)NC(=O)[C@H](CCCCN)NC(C)=O)[C@@H](C)O)C(=O)N[C@@H](CCCCN)C(=O)N[C@@H](Cc2ccccc2)C(=O)N[C@@H](CCC(=O)O)C(=O)N1)C(=O)N[C@@H](CC(=O)O)C(=O)N[C@@H](CO)C(N)=O [2c] (Ac-KETAACKFECQHMDS-NH2; disulfide 6-10), the “Percentage of helicity, 30% CH3CN:H2O” value ([1]; 30% CH3CN:H2O) is reported as 0%, the “Percentage of helicity, 30% TFE:H2O” value ([1]; 30% TFE:H2O) is reported as 0% and the “Restoration of S protein (RNase) enzymatic activity” value (RNase S protein) is reported as “failure to restore S protein activity”.
